Laboratory results reported in US20220009920A1 (GB005, Inc., priority 2020, published 2022).

How the values were obtained:
Experiment in all cases: Large panel kinase profiling
Type in all cases: biochemical
Conditions in all cases: 1 μM test article, 1 mM ATP
IRAK1 = IRAK1 (Homo sapiens, UniProt P51617)
How it was run: (§1)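 Continuous-read kinase assay: chelation-sensor peptide, 1 mM ATP, compound at 1 μM. Plates kept at 30° C.; fluorescence sampled at 1-min intervals (360/485 nm).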

IKBKB/IKKB = molecular target: T1, IKBKB/IKKB (Homo sapiens, UniProt O14920)
T1 construct: AssayQuant Technologies, Inc. (service provider)
T1 sequence (O14920 1-756): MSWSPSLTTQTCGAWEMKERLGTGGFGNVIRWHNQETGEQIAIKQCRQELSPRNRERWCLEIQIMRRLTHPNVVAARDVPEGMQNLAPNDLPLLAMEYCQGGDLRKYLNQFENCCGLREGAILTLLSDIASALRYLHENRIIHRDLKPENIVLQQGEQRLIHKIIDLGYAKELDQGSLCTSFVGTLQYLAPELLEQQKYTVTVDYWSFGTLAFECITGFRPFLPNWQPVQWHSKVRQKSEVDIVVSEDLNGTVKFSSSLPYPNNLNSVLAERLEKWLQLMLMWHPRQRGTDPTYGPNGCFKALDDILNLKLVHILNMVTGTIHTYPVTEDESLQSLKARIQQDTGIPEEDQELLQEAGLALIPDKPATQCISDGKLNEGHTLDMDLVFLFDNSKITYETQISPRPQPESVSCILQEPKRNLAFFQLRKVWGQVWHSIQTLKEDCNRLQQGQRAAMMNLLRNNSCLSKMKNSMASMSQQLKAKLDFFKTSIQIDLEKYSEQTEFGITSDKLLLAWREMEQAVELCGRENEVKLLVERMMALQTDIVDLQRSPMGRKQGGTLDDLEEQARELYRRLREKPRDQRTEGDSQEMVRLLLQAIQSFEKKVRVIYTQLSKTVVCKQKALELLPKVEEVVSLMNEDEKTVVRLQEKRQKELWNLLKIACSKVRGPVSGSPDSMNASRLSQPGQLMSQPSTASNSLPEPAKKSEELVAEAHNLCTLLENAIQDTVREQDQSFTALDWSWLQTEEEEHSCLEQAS
How it was run: as §1

BRAF(V599E) = BRAF(V599E) (Homo sapiens, UniProt P15056, V600E)
How it was run: as §1

PDK1 = molecular target: T2, PDK1 (Homo sapiens, UniProt O15530)
T2 sequence (O15530 1-556): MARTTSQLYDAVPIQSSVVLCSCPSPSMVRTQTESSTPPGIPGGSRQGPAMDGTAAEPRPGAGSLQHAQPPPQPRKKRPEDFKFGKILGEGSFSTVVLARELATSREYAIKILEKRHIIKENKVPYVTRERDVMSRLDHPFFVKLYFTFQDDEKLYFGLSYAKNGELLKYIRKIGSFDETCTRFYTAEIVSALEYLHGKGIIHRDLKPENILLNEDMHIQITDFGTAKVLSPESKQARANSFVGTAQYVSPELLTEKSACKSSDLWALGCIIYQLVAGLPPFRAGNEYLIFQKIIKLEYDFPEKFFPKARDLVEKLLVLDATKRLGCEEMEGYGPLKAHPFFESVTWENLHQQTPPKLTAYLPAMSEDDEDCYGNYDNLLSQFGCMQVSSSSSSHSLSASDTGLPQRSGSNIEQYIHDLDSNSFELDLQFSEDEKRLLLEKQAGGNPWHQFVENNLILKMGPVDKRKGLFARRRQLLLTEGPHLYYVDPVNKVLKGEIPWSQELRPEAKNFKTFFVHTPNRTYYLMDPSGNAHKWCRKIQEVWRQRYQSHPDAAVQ
How it was run: as §1

FLT4 = molecular target: T3, FLT4 (Homo sapiens, UniProt P35916)
T3 construct: AssayQuant Technologies, Inc. (service provider)
How it was run: as §1

CLK4 = molecular target: T4, CLK4 (Homo sapiens, UniProt Q9HAZ1)
T4 construct: AssayQuant Technologies, Inc. (service laboratory)
How it was run: as §1

TNIK = molecular target: T5, TNIK (Homo sapiens, UniProt Q9UKE5)
T5 construct: AssayQuant Technologies, Inc. (contract laboratory that ran the panel)
How it was run: as §1

DDR2 = molecular target: T6, DDR2 (Homo sapiens, UniProt Q16832)
T6 construct: AssayQuant Technologies, Inc. (service laboratory)
T6 sequence (Q16832 22-855): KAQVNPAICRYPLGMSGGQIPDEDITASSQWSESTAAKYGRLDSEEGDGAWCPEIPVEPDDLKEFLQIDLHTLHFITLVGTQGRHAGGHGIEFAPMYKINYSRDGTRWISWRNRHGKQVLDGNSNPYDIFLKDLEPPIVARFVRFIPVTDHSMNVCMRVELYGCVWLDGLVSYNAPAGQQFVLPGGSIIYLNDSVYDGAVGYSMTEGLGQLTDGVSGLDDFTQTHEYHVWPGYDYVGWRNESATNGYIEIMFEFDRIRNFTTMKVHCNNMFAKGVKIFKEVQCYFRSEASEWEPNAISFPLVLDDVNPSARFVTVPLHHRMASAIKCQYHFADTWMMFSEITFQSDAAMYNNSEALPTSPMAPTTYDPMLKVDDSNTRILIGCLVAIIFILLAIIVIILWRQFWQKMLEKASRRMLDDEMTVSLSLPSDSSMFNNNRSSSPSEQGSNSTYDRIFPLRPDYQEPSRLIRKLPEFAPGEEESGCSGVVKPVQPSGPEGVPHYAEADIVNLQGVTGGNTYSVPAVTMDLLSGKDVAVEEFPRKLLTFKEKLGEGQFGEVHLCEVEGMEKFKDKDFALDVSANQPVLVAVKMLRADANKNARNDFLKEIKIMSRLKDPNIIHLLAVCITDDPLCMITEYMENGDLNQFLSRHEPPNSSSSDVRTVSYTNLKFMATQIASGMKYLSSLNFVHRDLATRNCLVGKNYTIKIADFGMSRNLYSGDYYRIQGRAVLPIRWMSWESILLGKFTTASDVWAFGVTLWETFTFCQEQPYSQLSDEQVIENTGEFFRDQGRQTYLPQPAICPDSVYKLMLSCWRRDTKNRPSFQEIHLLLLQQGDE
How it was run: as §1

PKN1 = PKN1 (Homo sapiens, UniProt Q16512)
How it was run: as §1

Sequence of BRAF(V599E) (P15056 whole entry V600E): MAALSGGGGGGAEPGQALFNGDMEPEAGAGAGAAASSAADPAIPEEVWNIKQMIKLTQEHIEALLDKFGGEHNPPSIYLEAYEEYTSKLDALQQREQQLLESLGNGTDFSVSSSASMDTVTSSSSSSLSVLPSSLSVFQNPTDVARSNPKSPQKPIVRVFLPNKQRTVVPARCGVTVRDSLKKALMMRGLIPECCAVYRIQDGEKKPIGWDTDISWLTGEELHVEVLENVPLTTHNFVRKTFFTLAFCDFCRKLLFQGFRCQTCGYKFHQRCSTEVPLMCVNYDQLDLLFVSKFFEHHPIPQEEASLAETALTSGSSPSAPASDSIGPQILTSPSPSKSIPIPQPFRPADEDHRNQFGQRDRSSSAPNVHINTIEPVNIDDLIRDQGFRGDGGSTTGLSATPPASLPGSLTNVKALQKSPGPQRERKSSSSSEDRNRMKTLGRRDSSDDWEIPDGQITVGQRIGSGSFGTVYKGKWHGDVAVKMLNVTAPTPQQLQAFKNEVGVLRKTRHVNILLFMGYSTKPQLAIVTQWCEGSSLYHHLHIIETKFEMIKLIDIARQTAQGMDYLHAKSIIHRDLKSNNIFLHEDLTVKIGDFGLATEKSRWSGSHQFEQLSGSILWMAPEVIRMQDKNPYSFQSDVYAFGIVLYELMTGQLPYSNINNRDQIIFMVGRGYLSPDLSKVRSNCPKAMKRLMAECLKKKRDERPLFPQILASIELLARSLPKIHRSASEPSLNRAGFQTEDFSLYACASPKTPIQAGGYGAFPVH
T5 sequence (Q9UKE5 whole entry, species assumed): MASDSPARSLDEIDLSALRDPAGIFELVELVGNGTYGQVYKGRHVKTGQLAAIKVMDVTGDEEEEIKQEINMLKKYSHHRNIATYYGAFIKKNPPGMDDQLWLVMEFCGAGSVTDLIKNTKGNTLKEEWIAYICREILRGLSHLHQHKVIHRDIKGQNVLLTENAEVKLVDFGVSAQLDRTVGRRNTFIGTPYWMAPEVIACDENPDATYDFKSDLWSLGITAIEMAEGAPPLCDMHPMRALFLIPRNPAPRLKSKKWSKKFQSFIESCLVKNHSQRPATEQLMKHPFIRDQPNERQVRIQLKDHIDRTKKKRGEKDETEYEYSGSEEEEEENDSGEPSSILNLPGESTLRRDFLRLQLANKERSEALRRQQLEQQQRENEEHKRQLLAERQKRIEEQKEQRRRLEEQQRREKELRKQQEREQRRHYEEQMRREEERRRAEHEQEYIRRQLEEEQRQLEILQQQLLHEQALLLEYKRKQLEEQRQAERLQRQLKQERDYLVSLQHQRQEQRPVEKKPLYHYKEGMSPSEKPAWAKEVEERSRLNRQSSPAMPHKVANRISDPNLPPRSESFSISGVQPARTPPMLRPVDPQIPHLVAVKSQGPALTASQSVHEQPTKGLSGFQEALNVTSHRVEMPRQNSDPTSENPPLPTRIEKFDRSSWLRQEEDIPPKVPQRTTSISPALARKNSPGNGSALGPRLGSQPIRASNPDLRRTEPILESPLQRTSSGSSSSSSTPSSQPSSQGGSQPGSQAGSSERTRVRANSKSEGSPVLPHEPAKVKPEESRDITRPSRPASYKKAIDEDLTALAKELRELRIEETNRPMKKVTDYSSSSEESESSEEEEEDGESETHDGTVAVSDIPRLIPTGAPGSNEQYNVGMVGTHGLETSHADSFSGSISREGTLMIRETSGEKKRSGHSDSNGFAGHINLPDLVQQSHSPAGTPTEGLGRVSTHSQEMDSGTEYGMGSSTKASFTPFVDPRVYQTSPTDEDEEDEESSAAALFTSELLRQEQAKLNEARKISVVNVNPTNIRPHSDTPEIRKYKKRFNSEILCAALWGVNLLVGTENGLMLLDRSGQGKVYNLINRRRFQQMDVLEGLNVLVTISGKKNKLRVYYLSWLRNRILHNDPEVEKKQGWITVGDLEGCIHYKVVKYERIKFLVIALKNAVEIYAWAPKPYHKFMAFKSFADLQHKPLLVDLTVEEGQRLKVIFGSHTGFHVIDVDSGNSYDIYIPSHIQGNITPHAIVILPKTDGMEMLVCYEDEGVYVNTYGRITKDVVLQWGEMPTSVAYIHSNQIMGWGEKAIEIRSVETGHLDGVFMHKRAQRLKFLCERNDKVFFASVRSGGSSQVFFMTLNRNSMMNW
T4 sequence (Q9HAZ1 whole entry, species assumed): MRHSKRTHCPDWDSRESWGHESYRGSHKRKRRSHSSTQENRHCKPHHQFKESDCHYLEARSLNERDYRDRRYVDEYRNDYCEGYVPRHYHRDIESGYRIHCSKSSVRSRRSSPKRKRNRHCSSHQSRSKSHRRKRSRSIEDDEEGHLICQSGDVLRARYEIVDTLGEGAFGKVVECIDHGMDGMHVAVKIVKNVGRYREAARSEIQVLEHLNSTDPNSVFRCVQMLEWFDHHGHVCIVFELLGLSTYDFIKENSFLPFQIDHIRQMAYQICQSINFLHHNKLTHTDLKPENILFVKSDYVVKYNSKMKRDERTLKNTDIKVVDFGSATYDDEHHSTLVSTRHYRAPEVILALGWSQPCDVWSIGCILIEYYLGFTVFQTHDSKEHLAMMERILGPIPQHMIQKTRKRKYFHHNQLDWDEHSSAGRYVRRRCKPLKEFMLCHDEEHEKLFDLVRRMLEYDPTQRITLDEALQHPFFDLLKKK
Sequence of IRAK1 (P51617 whole entry, species assumed): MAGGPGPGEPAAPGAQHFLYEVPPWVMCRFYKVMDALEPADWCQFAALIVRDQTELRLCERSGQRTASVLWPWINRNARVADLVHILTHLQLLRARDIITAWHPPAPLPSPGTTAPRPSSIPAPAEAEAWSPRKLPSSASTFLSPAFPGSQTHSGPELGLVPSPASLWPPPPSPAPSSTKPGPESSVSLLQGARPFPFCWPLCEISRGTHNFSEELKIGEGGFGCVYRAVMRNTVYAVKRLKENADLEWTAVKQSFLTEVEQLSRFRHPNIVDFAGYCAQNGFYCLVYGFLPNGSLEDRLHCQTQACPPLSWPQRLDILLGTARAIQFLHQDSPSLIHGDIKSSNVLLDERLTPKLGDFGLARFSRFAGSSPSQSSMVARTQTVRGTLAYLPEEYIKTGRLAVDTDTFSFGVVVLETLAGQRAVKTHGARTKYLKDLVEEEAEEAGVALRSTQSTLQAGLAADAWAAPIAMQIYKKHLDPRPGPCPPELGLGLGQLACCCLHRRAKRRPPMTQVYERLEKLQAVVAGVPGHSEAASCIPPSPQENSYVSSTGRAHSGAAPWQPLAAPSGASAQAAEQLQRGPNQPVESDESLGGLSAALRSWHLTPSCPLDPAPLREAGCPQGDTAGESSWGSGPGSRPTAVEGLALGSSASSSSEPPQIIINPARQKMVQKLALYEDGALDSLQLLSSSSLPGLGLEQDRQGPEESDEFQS
T3 sequence (P35916 25-1363, species assumed): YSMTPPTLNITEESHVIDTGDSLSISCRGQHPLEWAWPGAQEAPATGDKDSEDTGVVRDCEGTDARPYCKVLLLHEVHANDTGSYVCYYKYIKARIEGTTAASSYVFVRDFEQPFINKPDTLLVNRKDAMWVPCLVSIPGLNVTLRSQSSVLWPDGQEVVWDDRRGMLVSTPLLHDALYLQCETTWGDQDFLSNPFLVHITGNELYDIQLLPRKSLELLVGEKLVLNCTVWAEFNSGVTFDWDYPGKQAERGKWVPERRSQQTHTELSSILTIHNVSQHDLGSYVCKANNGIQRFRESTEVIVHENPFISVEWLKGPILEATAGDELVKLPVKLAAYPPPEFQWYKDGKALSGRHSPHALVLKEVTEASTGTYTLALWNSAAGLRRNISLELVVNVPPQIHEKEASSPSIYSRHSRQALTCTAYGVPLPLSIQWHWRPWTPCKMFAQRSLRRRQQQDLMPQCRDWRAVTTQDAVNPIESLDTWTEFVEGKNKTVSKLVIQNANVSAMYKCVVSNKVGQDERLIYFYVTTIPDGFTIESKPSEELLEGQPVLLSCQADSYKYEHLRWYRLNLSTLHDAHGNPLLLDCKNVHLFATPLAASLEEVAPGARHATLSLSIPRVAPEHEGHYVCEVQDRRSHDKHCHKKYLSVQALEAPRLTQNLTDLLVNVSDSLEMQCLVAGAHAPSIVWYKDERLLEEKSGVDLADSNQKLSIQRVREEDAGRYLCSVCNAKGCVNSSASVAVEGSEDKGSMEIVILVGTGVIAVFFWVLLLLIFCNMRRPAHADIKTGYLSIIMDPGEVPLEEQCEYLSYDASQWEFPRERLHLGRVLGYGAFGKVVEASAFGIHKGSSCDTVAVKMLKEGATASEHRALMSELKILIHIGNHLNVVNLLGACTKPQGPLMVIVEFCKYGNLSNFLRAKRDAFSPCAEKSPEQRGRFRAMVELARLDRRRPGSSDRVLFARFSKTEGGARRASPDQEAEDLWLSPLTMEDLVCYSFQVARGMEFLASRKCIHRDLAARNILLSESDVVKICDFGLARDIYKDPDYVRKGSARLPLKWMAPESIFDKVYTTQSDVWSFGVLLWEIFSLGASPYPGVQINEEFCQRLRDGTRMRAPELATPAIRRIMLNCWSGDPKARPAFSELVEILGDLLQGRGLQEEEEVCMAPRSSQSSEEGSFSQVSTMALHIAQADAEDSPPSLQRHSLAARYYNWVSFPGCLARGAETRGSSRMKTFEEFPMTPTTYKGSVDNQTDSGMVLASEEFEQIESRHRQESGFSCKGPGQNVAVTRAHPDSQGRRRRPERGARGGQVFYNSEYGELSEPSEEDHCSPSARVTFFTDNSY

SMILES | inhibition at 1 µM (IRAK1) [%] | inhibition at 1 µM (IKBKB/IKKB) [%] | inhibition at 1 µM (BRAF(V599E)) [%] | inhibition at 1 µM (PDK1) [%] | inhibition at 1 µM (FLT4) [%] | inhibition at 1 µM (CLK4) [%] | inhibition at 1 µM (TNIK) [%] | inhibition at 1 µM (DDR2) [%] | inhibition at 1 µM (PKN1) [%]
C=CC(=O)N1CCCC(c2c(F)cc(C(N)=O)c3[nH]c4c(c23)CCCCC4)C1 (single isomer, unassigned) [Compound 5-6] | -28.6 | 2.5 | -13.2 | 22.8 | 19.7 | 12.3 | 9.9 | -6.5 | 5.2
C=CC(=O)N1CCC[C@@H](c2c(F)cc(C(N)=O)c3[nH]c4c(c23)CCC4)C1 [Compound 10-2, (S)-8-(1-acryloylpiperidin-3-yl)-7-fluoro-1,2,3,4-tetrahydrocyclo-penta[b]indole-5-carboxamide] | 7.8 | -17 | 4.3 | -28.3 | 1.8 | 2.7 | -22.9 | -26.7 | 12
C=CC(=O)N1CCC[C@@H](c2c(F)cc(C(N)=O)c3[nH]c4c(c23)CC2(CC4)CC2)C1 [Compound 6-2, (S)-5-(1-acryloylpiperidin-3-yl)-6-fluoro-1,2,4,9-tetrahydrospiro[carbazole-3,1′-cyclopropane]-8-carboxamide] | 5.6 | -7.6 | -4.9 | -7.8 | 20.4 | 6.5 | -29.3 | -15.9 | -10.2
